Results taken from patent publication US10813891B2, “Method of inhibiting chronification of pain” (priority 2011, dated 2020).
Like-named read-outs stand apart in the source and are kept apart here.

Assays:
Type in all cases: in vivo, rat
[1] = test system: CCI-SN rats; assay: Paw pressure (Randall-Selitto) test in CCI-SN rats; conditions: 10 mg/kg i.p.
Protocol: (§1) Male Sprague-Dawley rats (Charles River Laboratories, L'Arbresle, France), weighing 150-200 g on arrival, were used. Animals were maintained under controlled environmental conditions (22±1° C., 60% relative humidity, 12 h/12 h light/dark cycle, food and water ad libitum) starting from reception in the laboratory, for at least 1 week before any intervention or treatment and thereafter, until euthanasia.
(§2) Rats were anaesthetized as above and the common sciatic nerve was exposed. Using a dissection microscope (2× magnification), four chromic catgut (5-0) ligations were tied loosely with about 1 mm spacing, proximally to the sciatic trifurcation (Bennett and Xie, 1988). Finally, the skin and muscle were sewed using silk sutures (4-0). In sham-operated animals, the same surgery was performed, but the nerve was not ligated.
(§3) Tapentadol (1, 3 and 10 mg/kg i.p.), reboxetine (10 mg/kg i.p.), morphine (1 and 3 mg/kg s.c.) or their vehicle (0.9% NaCl) were injected acutely 14 days after surgery, when allodynia/hyperalgesia reached a plateau in both CCI-SN and CCI-ION rats. Behavioral tests were performed at various times for up to 4 h after injection. In drug association procedure, reboxetine or saline was administered 15 min before morphine or saline.

[2] = test system: CCI-SN rats
Protocol: as §1, §2, §3
(§4) Subchronic treatment consisted of twice daily injections of tapentadol (10 mg/kg, i.p. at 10:00 am and 6:00 pm) or saline for 4 days starting on the 15th day after nerve ligation in both CCI-ION and CCI-SN rats. Animals were further injected with tapentadol (10 mg/kg i.p.) or saline at 10:00 am the following day (19th day post-surgery), and assessment of allodynia with von Frey filament tests (see below) was made at various times up to 4 hours after this injection. All rats were killed by decapitation 4 hours after the last injection for real-time qRT-PCR determinations of specific mRNAs in ganglia and central tissues (see below).
Before testing, each rat was habituated for 2 h as above, and mechanical sensitivity was then determined with a graded series of […] von Frey filaments, that produced a bending force of 6, 8, 10, 12, 15, 26, and 60 g, respectively. The stimuli were applied within the SN territory (lateral part of the hind paw sole). Each filament was tested three times on the nerve-injured side in increasing order starting with the filament producing the lowest force. As for the CCI-ION rats, the von Frey filaments were applied at least 3 seconds after the rat had returned to its initial resting state. The minimal force filament for which animals presented either a brisk paw withdrawal and/or an escape attempt in response to at least 2 out of the 3 stimulations allowed determination of the mechanical response threshold. The 60.00 g filament was chosen as the cutoff threshold to inhibit any tissue injury.
A—Two weeks after unilateral chronic constriction injury to the sciatic nerve, pressure threshold values (as g) to trigger nocifensive responses to von Frey filaments application onto the plantar surface of ipsilateral hindpaw were determined at various times after acute injection of tapentadol (1, 3 or 10 mg/kg, i.p.) or saline. B—On day 15 (D on abscissa) after nerve ligation, rats were treated subchronically with tapentadol (10 mg/kg, i.p., twice daily, at 10:00 AM and 6:00 PM) or saline for four days. On the following day (day 19 after surgery), both tapentadol- and saline-pretreated CCI-SN rats were injected with tapentadol (10 mg/kg, i.p.; 0 on abscissa) and then subjected to von Frey filaments' test applied to ipsilateral hindpaw for determination of pressure threshold values (as g) at various times thereafter.

[3] = test system: mRNA encoding ATF3, IL-6 and BDNF; assay: Real time qRT-PCR of mRNA in DRG and lumbar spinal cord of CCI-SN rats; conditions: subchronic 10 mg/kg i.p. twice daily; ipsilateral L4-L6 DRG and dorsal quadrant of lumbar enlargement; 4 h after last injection
Protocol: as §4
Animals used for qRT-PCR procedure were decapitated immediately after performance of von Frey filament test four hours after the last injection of tapentadol or saline for subchronic treatment conditions (see above). […]
First-stranded cDNA synthesis (from 660 ng total RNA per 20 μl reaction mixture) was carried out using SuperScript™ III Reverse Transcriptase and random primers (250 ng per reaction), as recommended by the manufacturer (Invitrogen, Cergy Pontoise, France). […] Semi-quantitative determinations were made with reference to the reporter gene encoding glyceraldehyde 3-phosphate dehydrogenase (GaPDH; Rn99999916_sl). […] Specific mRNA levels were calculated after normalizing from GaDPH mRNA in each sample (Latrémolière et al., 2008). […]

Compound: CC[C@@H](c1cccc(O)c1)[C@@H](C)CN(C)C [Tapentadol, (−)-(1R,2R)-3-(3-dimethylamino-1-ethyl-2-methyl-propyl)-phenol]
- duration of increase in pressure threshold values [1]: at least 60 min
- pressure threshold values to trigger vocalization, vs untreated healthy rats ([1]; first 45 min after administration): +20%
- pressure threshold values to cause hindpaw withdrawal ([1]; first hour after treatment, vs intact healthy rats): did not significantly differ from those determined in intact healthy rats
- anti-allodynic effect after subchronic pretreatment vs saline pretreatment ([2]; 10 mg/kg i.p. twice daily for four days, challenge 10 mg/kg i.p. day 19): produced the same anti-allodynic effects
- increase in pressure threshold value ([2]; acute 1 mg/kg i.p., first 15-30 min after injection, non significant): approximately 40%
- pressure threshold values (anti-allodynic effect) ([2]; acute 3 mg/kg i.p.): also increased pressure threshold values, but to a lower extent than 10 mg/kg i.p.
- pressure threshold values (anti-allodynic effect) ([2]; acute 10 mg/kg i.p., 15-30 min after administration): no longer differed from healthy control values
- mechanical allodynia ([2]; acute 10 mg/kg i.p., 90 min after injection): mechanical allodynia did not significantly differ from that measured in saline-treated CCI-SN rats
- levels of mRNA encoding ATF3, IL-6 and BDNF, tapentadol vs saline [3]: not significantly different
